Source: patent US20260007681A1, “INDOLE DERIVATIVES AS ESTROGEN RECEPTOR DEGRADERS” (REGENTS OF THE UNIVERSITY OF MICHIGAN, priority 2022, published 2026)
Like-named read-outs stand apart in the source and are kept apart here.

Experiments:
CRBN/DDB1 = CRBN/DDB1 (Homo sapiens (Human), UniProt Q96SW2); assay type: binding; conditions: His tagged CRBN+DDB-DLS7+CXU4, Cy5-labeled Thalidomide probe, one hour incubation; read-out: CRBN HTRF IC50
Method: The binding potency was determined using H-TRF assay technology (Perkin Elmer). Compounds were serially diluted in DMSO and 0.2 μL volume was transferred to white 384-well plate.

ER in T47D cells = ER in T47D cells (Homo sapiens (Human), UniProt P03372); test: In-cell western (ICW) ER degradation assay in T47D cells (Compounds A1-A70); assay type: cell-based; conditions: T47D cells, 16 hrs treatment; for DC50: ER degradation, 0.02 to 300 nM; for Dmax: maximal ER degradation, read-out: T47D ICW Dmax (%)
Method: (§1) ERa degradative activity of compounds can be assessed in MCF-7 and T47D Cells. MCF-7 and T47D cell are seeded and are subsequently treated with the compounds at certain concentrations (e.g., 0.02 to 300 nM). DMSO can be used as vehicle control. Cells are fixed and are blocked with Intercept (PBS) Blocking Buffer (e.g., Li—COR, Odyssey Blocking Buffer), and are stained with ER (e.g., 1:500, Cell signaling) primary antibody for overnight at cold room. Secondary Antibody (e.g., IRDye 800CW Goat anti-Rabbit IgG) and CellTag 700 Stain are added in Intercept (PBS) Blocking Buffer. Finally, cell plate is placed in incubator to dry. Image and signal are captured on Odyssey® DLx Imaging System.
(§2) Day 3: After 16 hrs of compounds treatment, cells were fixed by 4% PFA and permeabilized with elution buffer (0.1% Triton X-100 in 1% PBS Solution). Subsequently, cells were blocked with Intercept (PBS) Blocking Buffer (Li—COR, Odyssey Blocking Buffer), and were stained with ER (1:500, Cell signaling) primary antibody for overnight at cold room.
(§3) Day 4: Remove the buffer, add IRDye 800CW Goat anti-Rabbit IgG Secondary Antibody (1:2000) and CellTag 700 Stain (1:500) in Intercept (PBS) Blocking Buffer. Finally, cell plate is placed in incubator to dry. Image and signal were captured on Odyssey® DLx Imaging System.

ER in MCF-7 cells = ER in MCF-7 cells (Homo sapiens (Human), UniProt P03372); test: In-cell western (ICW) ER degradation assay in MCF-7 cells (Compounds A1-A70); assay type: cell-based; conditions: MCF-7 cells, 16 hrs treatment; for DC50: ER degradation, 0.02 to 300 nM, read-out: MCF7 ICW DC50; for Dmax: MCF7, maximal ER degradation, read-out: MCF7 ICW Dmax (%)
Method: as §1, §2, §3

CRBN/DDB1, sequence (Q96SW2 whole entry): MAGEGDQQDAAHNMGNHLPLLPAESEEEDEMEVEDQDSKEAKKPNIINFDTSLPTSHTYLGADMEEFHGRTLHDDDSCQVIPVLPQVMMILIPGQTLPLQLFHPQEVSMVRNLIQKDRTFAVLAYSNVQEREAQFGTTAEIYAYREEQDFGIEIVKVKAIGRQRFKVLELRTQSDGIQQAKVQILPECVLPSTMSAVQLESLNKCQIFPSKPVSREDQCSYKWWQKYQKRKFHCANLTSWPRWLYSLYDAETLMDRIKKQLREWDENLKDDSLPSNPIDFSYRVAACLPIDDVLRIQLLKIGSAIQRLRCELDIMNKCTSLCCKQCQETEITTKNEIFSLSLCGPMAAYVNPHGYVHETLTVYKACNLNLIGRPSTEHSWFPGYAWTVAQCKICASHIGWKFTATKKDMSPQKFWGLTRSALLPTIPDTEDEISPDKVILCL
CRBN/DDB1, sequence (Q16531 whole entry partner): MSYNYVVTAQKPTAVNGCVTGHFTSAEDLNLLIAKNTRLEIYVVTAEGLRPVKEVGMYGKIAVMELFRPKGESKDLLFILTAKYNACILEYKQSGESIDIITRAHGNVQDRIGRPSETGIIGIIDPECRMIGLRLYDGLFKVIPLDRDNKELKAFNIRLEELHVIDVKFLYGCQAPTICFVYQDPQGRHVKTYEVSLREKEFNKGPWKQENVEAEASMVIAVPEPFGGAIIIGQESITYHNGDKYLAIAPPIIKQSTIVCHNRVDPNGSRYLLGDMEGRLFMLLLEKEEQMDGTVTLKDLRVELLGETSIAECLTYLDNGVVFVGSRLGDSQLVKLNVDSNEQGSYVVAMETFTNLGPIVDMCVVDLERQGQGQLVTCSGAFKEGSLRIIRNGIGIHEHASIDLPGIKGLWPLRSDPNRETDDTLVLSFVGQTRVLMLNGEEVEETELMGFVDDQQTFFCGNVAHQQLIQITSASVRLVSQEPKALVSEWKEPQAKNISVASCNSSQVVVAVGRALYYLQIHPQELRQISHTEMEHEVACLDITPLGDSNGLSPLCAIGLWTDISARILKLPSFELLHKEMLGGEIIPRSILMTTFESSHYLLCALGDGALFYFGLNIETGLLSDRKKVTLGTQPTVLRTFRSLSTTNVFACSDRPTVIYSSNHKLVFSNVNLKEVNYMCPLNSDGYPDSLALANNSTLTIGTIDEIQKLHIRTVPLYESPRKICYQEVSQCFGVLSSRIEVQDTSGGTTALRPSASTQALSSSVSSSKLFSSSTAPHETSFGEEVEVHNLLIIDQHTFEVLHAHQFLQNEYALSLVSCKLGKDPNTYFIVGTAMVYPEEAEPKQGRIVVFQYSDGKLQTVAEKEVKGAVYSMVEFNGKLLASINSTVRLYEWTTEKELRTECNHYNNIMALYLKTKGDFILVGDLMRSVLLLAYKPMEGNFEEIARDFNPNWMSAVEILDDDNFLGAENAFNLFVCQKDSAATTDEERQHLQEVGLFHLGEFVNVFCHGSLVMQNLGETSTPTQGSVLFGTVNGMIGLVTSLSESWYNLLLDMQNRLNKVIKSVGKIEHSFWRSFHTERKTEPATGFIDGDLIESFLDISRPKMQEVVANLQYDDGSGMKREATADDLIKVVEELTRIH
ER in MCF-7 cells, sequence (P03372 whole entry): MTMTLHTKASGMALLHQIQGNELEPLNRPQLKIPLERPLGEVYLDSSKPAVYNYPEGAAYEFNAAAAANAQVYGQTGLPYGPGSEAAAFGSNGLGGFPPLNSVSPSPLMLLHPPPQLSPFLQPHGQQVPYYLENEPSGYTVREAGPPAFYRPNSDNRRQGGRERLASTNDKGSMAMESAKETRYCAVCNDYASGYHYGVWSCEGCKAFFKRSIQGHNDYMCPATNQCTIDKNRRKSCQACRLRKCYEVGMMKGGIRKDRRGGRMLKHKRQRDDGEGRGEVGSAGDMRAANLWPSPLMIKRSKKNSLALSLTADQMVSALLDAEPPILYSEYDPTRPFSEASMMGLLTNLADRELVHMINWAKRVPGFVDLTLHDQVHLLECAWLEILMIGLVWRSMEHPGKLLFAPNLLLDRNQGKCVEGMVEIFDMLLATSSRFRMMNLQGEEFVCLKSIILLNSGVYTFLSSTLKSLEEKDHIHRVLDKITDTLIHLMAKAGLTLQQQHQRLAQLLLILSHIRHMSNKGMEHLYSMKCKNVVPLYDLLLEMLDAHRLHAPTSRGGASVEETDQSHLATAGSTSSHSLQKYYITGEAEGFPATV
ER in T47D cells, sequence (P03372 whole entry): as above

Structure (SMILES)	IC50 (CRBN/DDB1)	DC50 (ER in T47D cells)	Dmax (ER in T47D cells; T47D)	DC50 (ER in MCF-7 cells)	Dmax (ER in MCF-7 cells)	Dmax (ER in T47D cells)
C[C@@H]1Cc2c([nH]c3ccccc23)[C@@H](c2cnc([C@H]3CC[C@H](C(=O)N4CCC(N5Cc6cc7c(cc6C5)C(=O)N(C5CCC(=O)NC5=O)C7)CC4)CC3)nc2)N1CC(F)F (stereo partly drawn) [Compound A25, 3-(6-(1-((1R,4r)-4-(5-((1R,3R)-2-(2,2-difluoroethyl)-3-methyl-2,3,4,9-tetrahydro-1H-pyrido[3,4-b]indol-1-yl)pyrimidin-2-yl)cyclohexane-1-carbonyl)piperidin-4-yl)-1-oxo-3,5,6,7-tetrahydropyrrolo[3,4-f]isoindol-2(1H)-yl)piperidine-2,6-dione]	< 50 nM	< 1 nM	25 to 50%	10 to 100 nM	< 25%	
C[C@@H]1Cc2c([nH]c3ccccc23)[C@@H](c2cnc(N3CCC(CN4CCN5c6ccc7c(c6OC[C@@H]5C4)CN(C4CCC(=O)NC4=O)C7=O)CC3)nc2)N1CC(F)F (stereo partly drawn) [Compound A5, 3-((S)-7-((1-(5-((1R,3R)-2-(2,2-difluoroethyl)-3-methyl-2,3,4,9-tetrahydro-1H-pyrido[3,4-b]indol-1-yl)pyrimidin-2-yl)piperidin-4-yl)methyl)-1-oxo-1,3,5,5a,6,7,8,9-octahydro-2H-pyrazino[1′,2′:4,5]oxazino[2,3-e]isoindol-2-yl)piperidine-2,6-dione]	50 to 500 nM			1 to 10 nM	50 to 75%	
COc1cc(N2CCC(CN3CCC4(CC3)COc3cc5c(cc34)CN(C3CCC(=O)NC3=O)C5=O)CC2)ccc1[C@@H]1c2[nH]c3ccccc3c2C[C@@H](C)N1CC(F)F (stereo partly drawn) [Compound A33, 3-(1′-((1-(4-((1R,3R)-2-(2,2-difluoroethyl)-3-methyl-2,3,4,9-tetrahydro-1H-pyrido[3,4-b]indol-1-yl)-3-methoxyphenyl)piperidin-4-yl)methyl)-7-oxo-5,7-dihydro-2H,6H-spiro[furo[2,3-f]isoindole-3,4′-piperidin]-6-yl) piperidine-2,6-dione]	50 to 500 nM	< 1 nM		1 to 10 nM	< 25%	50 to 75%
C[C@@H]1Cc2c([nH]c3ccccc23)[C@@H](c2ccc(N3CCC4(CC3)CC(CN3CCN5c6cc7c(cc6OC[C@@H]5C3)C(=O)N([C@H]3CCC(=O)NC3=O)C7)C4)nc2)N1CC(F)F [Compound A11, (S)-3-((S)-3-((7-(5-((1R,3R)-2-(2,2-difluoroethyl)-3-methyl-2,3,4,9-tetrahydro-1H-pyrido[3,4-b]indol-1-yl)pyridin-2-yl)-7-azaspiro[3.5]nonan-2-yl)methyl)-8-oxo-1,2,3,4,4a,5,8,10-octahydro-9H-pyrazino[1′,2′:4,5][1,4]oxazino[2,3-f]isoindol-9-yl)piperidine-2,6-dione]	500 to 5000 nM			1 to 10 nM	50 to 75%	
COc1cc(N2CCC(CN3CCN(c4ccc(C5CCC(=O)NC5=O)cc4)CC3)CC2)ccc1[C@@H]1c2[nH]c3ccccc3c2C[C@@H](C)N1CC(F)F (stereo partly drawn) [Compound A46, 3-(4-(4-((1-(4-((1R,3R)-2-(2,2-difluoroethyl)-3-methyl-2,3,4,9-tetrahydro-1H-pyrido[3,4-b]indol-1-yl)-3-methoxyphenyl)piperidin-4-yl)methyl)piperazin-1-yl)phenyl)piperidine-2,6-dione]	50 to 500 nM	< 1 nM	25 to 50%			
COc1cc(N2CCC(CN3CCN(c4ccc(NC5CCC(=O)NC5=O)c(F)c4)CC3)CC2)ccc1[C@@H]1c2[nH]c3ccccc3c2C[C@@H](C)N1CC(F)F (stereo partly drawn) [Compound A41, 3-((4-(4-((1-(4-((1R,3R)-2-(2,2-difluoroethyl)-3-methyl-2,3,4,9-tetrahydro-1H-pyrido[3,4-b]indol-1-yl)-3-methoxyphenyl)piperidin-4-yl)methyl)piperazin-1-yl)-2-fluorophenyl)amino)piperidine-2,6-dione]	500 to 5000 nM	10 to 100 nM	25 to 50%			
C[C@@H]1Cc2c([nH]c3ccccc23)[C@@H](c2cnc(N3CCN(CC4CCN(c5ccc(N6CCC(=O)NC6=O)cc5)CC4)CC3)nc2)N1CC(F)F [Compound A38, 1-(4-(4-((4-(5-((1R,3R)-2-(2,2-difluoroethyl)-3-methyl-2,3,4,9-tetrahydro-1H-pyrido[3,4-b]indol-1-yl)pyrimidin-2-yl)piperazin-1-yl)methyl)piperidin-1-yl)phenyl)dihydropyrimidine-2,4(1H,3H)-dione]	500 to 5000 nM	1 to 10 nM	< 25%			
C[C@@H]1Cc2c([nH]c3ccccc23)[C@@H](c2cnc(N3CCC4(CCC(CN5CCN6c7cc8c(cc7OC[C@@H]6C5)C(=O)N([C@H]5CCC(=O)NC5=O)C8)CC4)CC3)nc2)N1CC(C)(C)F [Compound A9, (S)-3-((S)-3-((3-(5-((1R,3R)-2-(2-fluoro-2-methylpropyl)-3-methyl-2,3,4,9-tetrahydro-1H-pyrido[3,4-b]indol-1-yl)pyrimidin-2-yl)-3-azaspiro[5.5]undecan-9-yl)methyl)-8-oxo-1,2,3,4,4a,5,8,10-octahydro-9H-pyrazino[1′,2′:4,5][1,4]oxazino[2,3-f]isoindol-9-yl)piperidine-2,6-dione]	> 5000 nM			< 1 nM	25 to 50%	
C[C@@H]1Cc2c([nH]c3ccccc23)[C@@H](c2cnc(N3CCC(N4CCC(c5ccc(NC6CCC(=O)NC6=O)cc5F)CC4)CC3)nc2)N1CC(F)F (stereo partly drawn) [Compound A3, 3-((4-(1′-(5-((1R,3R)-2-(2,2-difluoroethyl)-3-methyl-2,3,4,9-tetrahydro-1H-pyrido[3,4-b]indol-1-yl)pyrimidin-2-yl)-[1,4′-bipiperidin]-4-yl)-3-fluorophenyl)amino)piperidine-2,6-dione]	50 to 500 nM					
C[C@@H]1Cc2c([nH]c3ccccc23)[C@@H](c2cnc(N3CCC(N4CCN(c5ccc(NC6CCC(=O)NC6=O)cc5F)CC4)CC3)nc2)N1CC(F)F (stereo partly drawn) [Compound A1, 3-((4-(4-(1-(5-((1R,3R)-2-(2,2-difluoroethyl)-3-methyl-2,3,4,9-tetrahydro-1H-pyrido[3,4-b]indol-1-yl)pyrimidin-2-yl)piperidin-4-yl)piperazin-1-yl)-3-fluorophenyl)amino)piperidine-2,6-dione]	500 to 5000 nM					
COc1cc(N2CCC(CN3CCC(c4ccc(N[C@H]5CCC(=O)NC5=O)c(F)c4)CC3)CC2)ccc1[C@@H]1c2[nH]c3ccccc3c2C[C@@H](C)N1CC(F)F [Compound A40, (S)-3-((4-(1-((1-(4-((1R,3R)-2-(2,2-difluoroethyl)-3-methyl-2,3,4,9-tetrahydro-1H-pyrido[3,4-b]indol-1-yl)-3-methoxyphenyl)piperidin-4-yl)methyl)piperidin-4-yl)-2-fluorophenyl)amino)piperidine-2,6-dione]	> 5000 nM	< 1 nM	25 to 50%			
C[C@@H]1Cc2c([nH]c3ccccc23)[C@@H](c2ccc(N3CCC4(CC3)CC(CN3CCN5c6ccc7c(c6OC[C@@H]5C3)CN([C@H]3CCC(=O)NC3=O)C7=O)C4)nc2)N1CC(F)F [Compound A24, (S)-3-((S)-7-((7-(5-((1R,3R)-2-(2,2-difluoroethyl)-3-methyl-2,3,4,9-tetrahydro-1H-pyrido[3,4-b]indol-1-yl)pyridin-2-yl)-7-azaspiro[3.5]nonan-2-yl)methyl)-1-oxo-1,3,5,5a,6,7,8,9-octahydro-2H-pyrazino[1′,2′:4,5][1,4]oxazino[2,3-e]isoindol-2-yl)piperidine-2,6-dione]	< 50 nM			10 to 100 nM	25 to 50%	
COc1cc(N2CCC(CN3CCN(c4cnc(C(=O)NC5CCC(=O)NC5=O)cc4OC)CC3)CC2)ccc1[C@@H]1c2[nH]c3ccccc3c2C[C@@H](C)N1CC(F)F (stereo partly drawn) [Compound A56, 5-(4-((1-(4-((1R,3R)-2-(2,2-difluoroethyl)-3-methyl-2,3,4,9-tetrahydro-1H-pyrido[3,4-b]indol-1-yl)-3-methoxyphenyl)piperidin-4-yl)methyl)piperazin-1-yl)-N-(2,6-dioxopiperidin-3-yl)-4-methoxypicolinamide]	> 5000 nM			< 1 nM	50 to 75%	
C[C@@H]1Cc2c([nH]c3ccccc23)[C@@H](c2cnc(N3C[C@@H]4[C@@H](CN5CCN6c7cc8c(cc7OC[C@@H]6C5)C(=O)N(C5CCC(=O)NC5=O)C8)[C@@H]4C3)nc2)N1CC(F)F (stereo partly drawn) [Compound A4, (S)-3-((S)-3-(((1R,5S,6S)-3-(5-((1R,3R)-2-(2,2-difluoroethyl)-3-methyl-2,3,4,9-tetrahydro-1H-pyrido[3,4-b]indol-1-yl)pyrimidin-2-yl)-3-azabicyclo[3.1.0]hexan-6-yl)methyl)-8-oxo-1,2,3,4,4a,5,8,10-octahydro-9H-pyrazino[1′,2′:4,5][1,4]oxazino[2,3-f]isoindol-9-yl)piperidine-2,6-dione]	500 to 5000 nM					
